In PubChem BioAssay AID1963853 (Molecular Pharmacology Branch, DTP, NCI, 2024):
pIC50: −log10 of the molar value.

System: 266295-075-R-J1-PDC spheroid viability
Experiment: Anticancer human tumor 266295-075-R-J1-PDC patient-derived head and neck squamous carcinoma cell line growth inhibition [POLQ]
Details: spheroids with HUVEC and MSC; for pIC50: curve of first compound; for viability, T/C: stronger effect = lower value
How it was run: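 Patient-derived tumour cells were co-cultured with HUVEC and mesenchymal stem cells as multicellular spheroids at 37 °C. They were treated with POLQ inhibitors (novobiocin, ART-558, RP6685) alone or combined with other agents. Top concentrations were at or near clinical Cmax (otherwise 10 microM; SN-38 at 1 microM), decreasing in half-log steps.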

[1] = second compound 0.0316 µM, first compound 0.0316 µM
[2] = second compound 0.0316 µM, first compound 0.1 µM
[3] = second compound 0.0316 µM, first compound 0.316 µM
[4] = second compound 0.0316 µM, first compound 1 µM
[5] = second compound 0.0316 µM, first compound 3.16 µM
[6] = second compound 0.0316 µM, first compound 10 µM
[7] = second compound 0.1 µM, first compound 0.0316 µM
[8] = second compound 0.1 µM, first compound 0.1 µM
[9] = second compound 0.1 µM, first compound 0.316 µM
[10] = second compound 0.1 µM, first compound 1 µM
[11] = second compound 0.1 µM, first compound 3.16 µM
[12] = second compound 0.1 µM, first compound 10 µM
[13] = second compound 0.316 µM, first compound 0.0316 µM
[14] = second compound 0.316 µM, first compound 0.1 µM
[15] = second compound 0.316 µM, first compound 0.316 µM
[16] = second compound 0.316 µM, first compound 1 µM
[17] = second compound 0.316 µM, first compound 3.16 µM
[18] = second compound 0.316 µM, first compound 10 µM
[19] = second compound 1 µM, first compound 0.0316 µM
[20] = second compound 1 µM, first compound 0.1 µM
[21] = second compound 1 µM, first compound 0.316 µM
[22] = second compound 1 µM, first compound 1 µM
[23] = second compound 1 µM, first compound 3.16 µM
[24] = second compound 1 µM, first compound 10 µM
[25] = second compound 3.16 µM, first compound 0.0316 µM
[26] = second compound 3.16 µM, first compound 0.1 µM
[27] = second compound 3.16 µM, first compound 0.316 µM
[28] = second compound 3.16 µM, first compound 1 µM
[29] = second compound 3.16 µM, first compound 3.16 µM
[30] = second compound 3.16 µM, first compound 10 µM
[31] = second compound 10 µM, first compound 0.0316 µM
[32] = second compound 10 µM, first compound 0.1 µM
[33] = second compound 10 µM, first compound 0.316 µM
[34] = second compound 10 µM, first compound 1 µM
[35] = second compound 10 µM, first compound 3.16 µM
[36] = second compound 10 µM, first compound 10 µM
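Note: spheroids exposed to compounds for seven days before readout.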

With `C=CC(=O)N1CCN(c2nc(=O)n(-c3c(C)ccnc3C(C)C)c3nc(-c4c(O)cccc4F)c(F)cc23)C(C)C1` (stereo not drawn) + Nc1ccc(C#CCN(C(=O)Cc2ncc(C(F)(F)F)cc2C(F)(F)F)c2ccc(F)cc2)nn1 the pIC50 (second compound 0.0316 µM) was < 5.00, the pIC50 (second compound 0.1 µM) was < 5.00 and the pIC50 (second compound 0.316 µM) was < 5.00. The pIC50 (second compound 1 µM) was < 5.00, the pIC50 (second compound 3.16 µM) was < 5.00 and the pIC50 (second compound 10 µM) was < 5.00. The viability, T/C [1] was 108%, the viability, T/C [2] was 96.4% and the viability, T/C [3] was 101%. The viability, T/C [4] was 96.8%, the viability, T/C [5] was 112% and the viability, T/C [6] was 107%. For the same compound, the viability, T/C [7] was 96%, the viability, T/C [8] was 106% and the viability, T/C [9] was 100%. For the same compound, the viability, T/C [10] was 111%, the viability, T/C [11] was 108% and the viability, T/C [12] was 112%. For the same compound, the viability, T/C [13] was 89.8%, the viability, T/C [14] was 107% and the viability, T/C [15] was 90.6%. The viability, T/C [16] was 107%, the viability, T/C [17] was 145% and the viability, T/C [18] was 125%. For the same compound, the viability, T/C [19] was 101%, the viability, T/C [20] was 95.5% and the viability, T/C [21] was 133%. It also gave a viability, T/C [22] of 101%, a viability, T/C [23] of 124% and a viability, T/C [24] of 73.9%. For the same compound, the viability, T/C [25] was 98.4%, the viability, T/C [26] was 93.8% and the viability, T/C [27] was 94.2%. For the same compound, the viability, T/C [28] was 108%, the viability, T/C [29] was 117% and the viability, T/C [30] was 103%. The viability, T/C [31] was 106%, the viability, T/C [32] was 72.8% and the viability, T/C [33] was 92.3%. For the same compound, the viability, T/C [34] was 106%, the viability, T/C [35] was 105% and the viability, T/C [36] was 108%.

In the case of `CC(C)n1c(=O)n(C)c2cnc3cc(F)c(-c4ccc(OCCCN5CCCCC5)nc4)cc3c21` + Nc1ccc(C#CCN(C(=O)Cc2ncc(C(F)(F)F)cc2C(F)(F)F)c2ccc(F)cc2)nn1, the pIC50 (second compound 0.0316 µM) was < 5.00, the pIC50 (second compound 0.1 µM) was < 5.00 and the pIC50 (second compound 0.316 µM) was < 5.00. The pIC50 (second compound 1 µM) was < 5.00, the pIC50 (second compound 3.16 µM) was < 5.00 and the pIC50 (second compound 10 µM) was < 5.00. For the same compound, the viability, T/C [1] was 105%, the viability, T/C [2] was 99.3% and the viability, T/C [3] was 104%. For the same compound, the viability, T/C [4] was 106%, the viability, T/C [5] was 82.8% and the viability, T/C [6] was 76.3%. For the same compound, the viability, T/C [7] was 93.8%, the viability, T/C [8] was 103% and the viability, T/C [9] was 88%. It also gave a viability, T/C [10] of 80.6%, a viability, T/C [11] of 96% and a viability, T/C [12] of 64.5%. The viability, T/C [13] was 110%, the viability, T/C [14] was 105% and the viability, T/C [15] was 90.2%. The viability, T/C [16] was 91.3%, the viability, T/C [17] was 89.9% and the viability, T/C [18] was 66.7%. It also gave a viability, T/C [19] of 93.5%, a viability, T/C [20] of 114% and a viability, T/C [21] of 99.4%. The viability, T/C [22] was 90%, the viability, T/C [23] was 82.2% and the viability, T/C [24] was 65.3%. It also gave a viability, T/C [25] of 121%, a viability, T/C [26] of 118% and a viability, T/C [27] of 103%. The viability, T/C [28] was 96.3%, the viability, T/C [29] was 92.4% and the viability, T/C [30] was 87.9%. For the same compound, the viability, T/C [31] was 96.5%, the viability, T/C [32] was 87.9% and the viability, T/C [33] was 118%. It also gave a viability, T/C [34] of 93.3%, a viability, T/C [35] of 66.4% and a viability, T/C [36] of 71.8%.

With `CC1COCCN1c1cc(-c2ccnn2C)c2ccnc(-c3ccn[nH]3)c2n1` (stereo not drawn) + Nc1ccc(C#CCN(C(=O)Cc2ncc(C(F)(F)F)cc2C(F)(F)F)c2ccc(F)cc2)nn1 the pIC50 (second compound 0.0316 µM) was 5.52, the pIC50 (second compound 0.1 µM) was 5.59 and the pIC50 (second compound 0.316 µM) was 6.55. The pIC50 (second compound 1 µM) was 5.89, the pIC50 (second compound 3.16 µM) was 5.69 and the pIC50 (second compound 10 µM) was 5.94. It also gave a viability, T/C [1] of 92.3%, a viability, T/C [2] of 73.2% and a viability, T/C [3] of 78%. The viability, T/C [4] was 63.6%, the viability, T/C [5] was 46.9% and the viability, T/C [6] was 36.5%. The viability, T/C [7] was 92.1%, the viability, T/C [8] was 84.4% and the viability, T/C [9] was 69.1%. For the same compound, the viability, T/C [10] was 57.5%, the viability, T/C [11] was 52.2% and the viability, T/C [12] was 34.3%. For the same compound, the viability, T/C [13] was 90.2%, the viability, T/C [14] was 86.1% and the viability, T/C [15] was 44.8%. The viability, T/C [16] was 55.6%, the viability, T/C [17] was 42.3% and the viability, T/C [18] was 42.5%. For the same compound, the viability, T/C [19] was 85%, the viability, T/C [20] was 76.3% and the viability, T/C [21] was 59.1%. For the same compound, the viability, T/C [22] was 52.1%, the viability, T/C [23] was 46.2% and the viability, T/C [24] was 26.8%. The viability, T/C [25] was 103%, the viability, T/C [26] was 83.8% and the viability, T/C [27] was 74%. It also gave a viability, T/C [28] of 60.7%, a viability, T/C [29] of 43.1% and a viability, T/C [30] of 30.7%. The viability, T/C [31] was 97.2%, the viability, T/C [32] was 91.9% and the viability, T/C [33] was 69.5%. It also gave a viability, T/C [34] of 54.7%, a viability, T/C [35] of 35.8% and a viability, T/C [36] of 35.6%.

`COc1ccc([C@@H](O)c2cc(-c3ncnc4cc(N5CCOCC5)ccc34)c(F)cc2Cl)nn1` + Nc1ccc(C#CCN(C(=O)Cc2ncc(C(F)(F)F)cc2C(F)(F)F)c2ccc(F)cc2)nn1 gave a pIC50 (second compound 0.0316 µM) of 5.28, a pIC50 (second compound 0.1 µM) of 5.61 and a pIC50 (second compound 0.316 µM) of 5.31. For the same compound, the pIC50 (second compound 1 µM) was 5.57, the pIC50 (second compound 3.16 µM) was 5.49 and the pIC50 (second compound 10 µM) was 5.60. The viability, T/C [1] was 87.8%, the viability, T/C [2] was 91.7% and the viability, T/C [3] was 72.4%. It also gave a viability, T/C [4] of 89%, a viability, T/C [5] of 59.4% and a viability, T/C [6] of 38%. The viability, T/C [7] was 78.3%, the viability, T/C [8] was 89.7% and the viability, T/C [9] was 71.6%. The viability, T/C [10] was 73.9%, the viability, T/C [11] was 43.2% and the viability, T/C [12] was 40%. It also gave a viability, T/C [13] of 93%, a viability, T/C [14] of 94.9% and a viability, T/C [15] of 71.4%. It also gave a viability, T/C [16] of 75.4%, a viability, T/C [17] of 57.4% and a viability, T/C [18] of 37.7%. It also gave a viability, T/C [19] of 113%, a viability, T/C [20] of 120% and a viability, T/C [21] of 81.1%. For the same compound, the viability, T/C [22] was 71%, the viability, T/C [23] was 49.3% and the viability, T/C [24] was 29.6%. The viability, T/C [25] was 98.6%, the viability, T/C [26] was 109% and the viability, T/C [27] was 82.8%. The viability, T/C [28] was 65.9%, the viability, T/C [29] was 55% and the viability, T/C [30] was 38.2%. It also gave a viability, T/C [31] of 104%, a viability, T/C [32] of 94.2% and a viability, T/C [33] of 87.9%. It also gave a viability, T/C [34] of 61.2%, a viability, T/C [35] of 46.8% and a viability, T/C [36] of 42.6%.
